Laboratory results: patent publication US9833425B2, “Gentisic acid is used to improve systemic hemodynamics, hepatic mitochondrial function and lactate acidemia in patients with septic shock” (priority 2015, dated 2017)
“Also recorded” adds a separate entry of the source. Read-outs that look alike come from different tables or passages of the source. Marks after values point to notes of the source that are not given here.

Assays:
[1] = pH in unbuffered solution; assay type: physicochemical
[2] = system: canine model of septic shock (Pseudomonas aeruginosa); conditions: for effect of treatment on heart rate (HR): 3 hrs and 5 hrs posttreatment vs other septic groups; for ALT (alanine transaminase) / AST (aspartate transaminase) / Arterial pH / CK (creatine kinase) / Oxygen delivery / Cardiac output / LD (lactate dehydrogenase) / Lactate / Mean arterial pressure / Pulmonary wedge pressure / Stroke work index / Troponin / Heart Rates: mean ± SD; for effect of treatment on mean arterial pressure (MAP): infusion started at septic shock condition, 3 hr and 5 hr post treatment; for effect of treatment on blood lactate concentration: over the course of the study; for Systemic vascular resistance: mean (SD in the cell below)
Experimental: We used a bacteremic model of Pseudomonas aeruginosa in this study as previously described (20). We used this particular model, since we wanted to measure mitochondrial function and LA under conditions of an acute and intensive inflammatory response analogous to that which would occur in a severe bout of SS in the clinical condition. […] Over the course of the experiment, we studied the animals (18 to 26 kg) while anesthetized with sufentanil citrate (0.05-0.3 ug/kg/min) and midazolam (5 ug/kg/min), and while being ventilated receiving 100% oxygen to maintain arterial around PO2 ˜400 mmHg. We adjusted the ventilator rate over the course of the study to attenuate the development of the metabolic acidosis that is usually observed (20).
To assess hemodynamics in this model, we inserted vascular catheters under sterile conditions as previously described (20), after which we connected the catheters to pressure transducers (Cobe, Argon) that were referenced relative to the left atrium and connected to a chart recorder (Astro-Med, W Warwick, R.I.). To measure MAP, we inserted a polyethylene catheter into the right femoral artery, while to measure pulmonary vascular pressures, we inserted a Swanz-Ganz catheter (Edwards Lifesciences, Irvine, Calif.) by percutaneous techniques through the right jugular vein. From the Swanz-Ganz catheter, we obtained measurements of pulmonary arterial pressure (Ppa), wedge pressure (Pwp), and right atrial pressure (Rap), as well as determinations of thermodilution cardiac output (CO).
From the hemodynamic measurements, we calculated SV from CO/heart rates (HR), stroke work (SW) from [SV*(MAP−Pwp)], and systemic vascular resistance (SVR) from [(MAP-Rap)/CO)*80]. We also normalized measurements of SV, SW, and CO and organ oxygen delivery (DO2) to body weight. We calculated DO2 from CO×Hb×1.34 ml oxygen per gram of Hb, since Hb was 100% saturated at a PO2 of ˜400 mmHg. From the arterial catheter and distal port of the Swanz-Ganz catheter, we also took arterial and mixed venous blood samples, respectively, for analyses of PO2, PCO2, and pH.
In addition, we placed another polyethylene catheter into the left jugular vein, also by percutaneous techniques, for infusion of the bacteria and intravenous fluids and for obtaining blood chemistry and hematological samples. Since the baseline Pwp found in this model usually averages≈8-10 mmHg, we infused normal saline solution as necessary to maintain Pwp relatively constant over the duration of this study. […] The Clinical Chemistry Laboratory at the Health Sciences Centre performed the clinical laboratory tests.
We included 5 groups of animals in the initial phase of this study. These groups included a septic control group, a non-septic control group, a norepinephrine (NE) septic group, a gentisic acid sodium salt (GSS) septic group, and a GSS non-septic group. In each group, we made baseline measurements of hemodynamics and blood parameters after approximately 1 hr period of stability. In the septic groups, after initiation of the bacterial infusion, we repeated the measurements in the septic shock condition. […] In the septic control group, after the SS condition, we started an infusion of 5% dextrose in water (D5W) at approximately 40 ml/hr for the remainder of the study, since D5W was the diluent for both the NE and GSS treatments.
In all groups, we then made posttreatment measurements at 3 hrs and 5 hrs after completion of the septic shock/sham-shock determinations.
In this supplemental study, we examined the effect of gallic acid on hemodynamics and mitochondrial function in our Pseudomonas aeruginosa model in a manner identical to that described for GSS treatment.

[3] = system: mitochondrial complex IV (cytochrome c oxidase); test: Enzymatic activity of hepatic mitochondrial complex IV; assay type: biochemical, dog; conditions: hepatic mitochondria of treated septic dogs; mean ± SD
Source text: As part of our assessment of mitochondrial function, we also measured the enzymatic activity of hepatic mitochondrial complex IV based on the rationale of Levy et al (10), since these investigators considered that dysfunction of complex IV was the most important determinant of abnormal mitochondrial function in SS. We determined complex IV activity spectrophotometrically by a temperature-controlled Ultrospec™ 2100 ultraviolet-visible spectrophotometer (Biopharmacia Biotech, Uppsala, Sweden) (17). Complex IV activity was measured at 25° C. by monitoring the absorbance decrease of reduced cytochrome c at 550 nm.

[4] = septic dogs, listed as gentisic, sodium salt
[5] = septic dogs, 3 hrs posttreatment
[6] = septic dogs, 5 hrs posttreatment
[7] = septic dogs, baseline (before bacteria/treatment)
[8] = septic dogs, septic shock (before treatment)
[9] = septic dogs, septic shock condition (before treatment)

## O=C([O-])c1cc(O)ccc1O.[Na+] [GSS, 2,5-dihydroxybenzoic acid sodium salt]
[1]
  pH in unbuffered solution: 8.2
[2]; one dog of the gentisic septic group (FIG. 4)
  time of infusion until systemic blood pressure reached the baseline value: approximately 20 minutes
[2]; septic dogs
  arterial pH at the end of the study, compared among groups: higher
[2]; septic dogs, 3 hr and 5 hr vs septic control group, did not reach statistical significance
  effect of treatment on stroke work index: an increase in stroke work index
[2]; [4]
  effect of treatment on heart rate (HR): significant decrease in HR
  effect of treatment on blood lactate concentration: did not increase and even tended to decrease slightly
[2]; septic dogs, sodium salt
  effect of treatment on heart rate (HR): heart rates were lower
  effect of treatment on mean arterial pressure (MAP): increased MAP back to the baseline value; also recorded: return in MAP to baseline
  effect of treatment on blood lactate concentration: did not change
[2]; septic dogs, 3 hrs and 5 hrs posttreatment vs septic shock condition, sodium salt
  effect of treatment on systemic vascular resistance (SVR): increased SVR back to the baseline value; also recorded: an increase in SVR
[2]; [5]
  ALT (alanine transaminase): 209 ± 158*^+! IU
  AST (aspartate transaminase): 235 ± 167*^+$ IU
  Arterial pH: 7.24 ± .08*^+$^
  CK (creatine kinase): 1847 ± 1763^! IU
  Oxygen delivery: 20 ± 7 mL/min/kg
[2]; [6]
  ALT (alanine transaminase): 225 ± 171*^+ IU
  AST (aspartate transaminase): 279 ± 208*^+!$ IU
  Arterial pH: 7.20 ± 0.06*^+#$^
  CK (creatine kinase): 2857 ± 2527*^!^ IU
  Oxygen delivery: 20 ± 19 mL/min/kg
[2]; [7]
  ALT (alanine transaminase): 51 ± 29 IU
  AST (aspartate transaminase): 29 ± 31 IU
  Arterial pH: 7.38 ± .03
  CK (creatine kinase): 117 ± 106 IU
  Oxygen delivery: 18 ± 3 mL/min/kg
[2]; [8]
  ALT (alanine transaminase): 161 ± 132 IU
  AST (aspartate transaminase): 143 ± 113 IU
  Arterial pH: 7.26
  CK (creatine kinase): 521 ± 750 IU
[2]; [9]
  Oxygen delivery: 26 ± 6 mL/min/kg
[3]
  enzymatic activity of mitochondrial complex IV: 3.68±0.59 umol/min/mg protein

## O=C(O)c1cc(O)c(O)c(O)c1 [gallic acid, 3,4,5 trihydroxybenzoic acid]
[1]
  pH in unbuffered solution: 4.2
[2]; septic dogs, 3 hrs post treatment
  Systemic vascular resistance: 1673 dynes S/cm^5
[2]; [5]
  ALT (alanine transaminase): 187 ± 68*^+! IU
  AST (aspartate transaminase): 324 ± 104*^+$ IU
  Arterial pH: 7.17 ± .10*^+@$
  CK (creatine kinase): 3832 ± 3896*^+ IU
  Cardiac output: 120 ± 400 mL/min/kg
  LD (lactate dehydrogenase): 415 ± 192*^+#@$^ IU
  Lactate: .8 ± .4^#! nunol/L
  Mean arterial pressure: 71 ± 10^*%@!$ mmHg
  Oxygen delivery: 26 ± 7 mL/min/kg
  Pulmonary wedge pressure: 11.6 ± 2.6^+ mmHg
  Stroke work index: 62 ± 28*^+ ml mmHg/Kg
  Troponin: 41 ± 92 ng/L
[2]; septic dogs, 5 hrs post treatment
  Systemic vascular resistance: 1478 dynes S/cm^5
[2]; [6]
  ALT (alanine transaminase): 189 ± 66*^+#! IU
  AST (aspartate transaminase): 363 ± 89*^+$ IU
  Arterial pH: 7.12
  CK (creatine kinase): 5065 IU
  Cardiac output: 130 ± 40 mL/min/kg
  LD (lactate dehydrogenase): 513 IU
  Lactate: .75 ± .35^#! nunol/L
  Mean arterial pressure: 60 ± 5*^%@!$ mmHg
  Oxygen delivery: 22 ± 3 mL/min/kg
  Pulmonary wedge pressure: 11.3 ± 2.1^+ mmHg
  Stroke work index: 49 ± 20*^+ ml mmHg/Kg
  Troponin: 69 ± 157* ng/L
[2]; [7]
  Systemic vascular resistance: 3566 dynes S/cm^5
  ALT (alanine transaminase): 33 ± 16 IU
  AST (aspartate transaminase): 19 ± 3 IU
  Arterial pH: 7.40 ± .05
  CK (creatine kinase): 104 ± 35 IU
  Cardiac output: 113 ± 20 mL/min/kg
  Heart Rates: 49 ± 3
  LD (lactate dehydrogenase): 36 ± 10 IU
  Mean arterial pressure: 105 ± 14 mmHg
  Oxygen delivery: 21 ± 6 mL/min/kg
  Pulmonary wedge pressure: 11.3 ± 2.3 mmHg
  Stroke work index: 212 ± 43 ml mmHg/Kg
[2]; septic dogs, baseline (before bacteria/treatment), index of myocardial injury
  Troponin: 0 ± 3 ng/L
[2]; septic dogs
  effect of treatment on mean arterial pressure (MAP): did not produce an increase in MAP
  effect of treatment on blood lactate concentration: reduction in lactate at 3 hrs and 5 hrs posttreatment
[2]; [8]
  ALT (alanine transaminase): 157 ± 61 IU
  AST (aspartate transaminase): 241 ± 104*^+$ IU
  Arterial pH: 7.25 ± .10*^+$
  CK (creatine kinase): 2650 ± 3339 IU
  LD (lactate dehydrogenase): 200 ± 98*^+$ IU
[2]; [9]
  Systemic vascular resistance: 1257 dynes S/cm^5
  Cardiac output: 150 ± 40 mL/min/kg
  Heart Rates: 125 ± 28*^+
  Mean arterial pressure: 64 ± 12*^+ mmHg
  Oxygen delivery: 25 ± 6 mL/min/kg
  Pulmonary wedge pressure: 10.4 ± 2.7^+ mmHg
  Stroke work index: 72 ± 32*^+ ml mmHg/Kg
  Troponin: 14 ± 15 ng/L
[3]
  enzymatic activity of mitochondrial complex IV: 2.44±0.63 umol/min/mg protein
